# Source: PubChem BioAssay (NCI)
#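 Exposure lasted 48 hours, with cells grown in 96-well plates and compounds tested at five concentrations. At the GI50, growth is halved. TGI is the concentration that stops growth completely.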
# How the values were obtained:
# Test in all cases: NCI-60 cell line screen, 48 h
# [1] = system: HOP-92 NSCLC
# [2] = system: HOP-62 NSCLC
# [3] = system: SK-MEL-5 melanoma
# [4] = system: SK-MEL-2 melanoma
# [5] = system: SNB-19 CNS
# [6] = system: HT29 colon
# [7] = system: CAKI-1 renal
# [8] = system: PC-3 prostate
# [9] = system: KM12 colon
# [10] = system: SR leukemia
SMILES,GI50 [1] [µM],TGI [1] [µM],GI50 [2] [µM],TGI [2] [µM],GI50 [3] [µM],TGI [3] [µM],GI50 [4] [µM],TGI [4] [µM],GI50 [5] [µM],TGI [5] [µM],GI50 [6] [µM],TGI [6] [µM],GI50 [7] [µM],TGI [7] [µM],GI50 [8] [µM],TGI [8] [µM],GI50 [9] [µM],TGI [9] [µM],GI50 [10] [µM],TGI [10] [µM]
C=C1C(=O)O[C@@H]2C[C@@H]1CC[C@]1(C)O[C@H]1CC/C(C)=C/CC[C@@]2(C)O,29.1,82.7,24.2,47.7,24.3,52.7,64.4,> 100,49.6,> 100,15.4,31.7,18.7,37,96.3,> 100,16.2,34.3,4.07,15.7
Clc1ccc(-c2nc3c(-c4ccccc4)nc(-c4ccccc4)cn3c2-c2ccc(Cl)cc2)cc1,> 100,> 100,> 100,> 100,> 100,> 100,> 100,> 100,> 100,> 100,> 100,> 100,> 100,> 100,> 100,> 100,> 100,> 100,> 100,> 100
NC(CP(=O)(O)O)C(=O)O (centres undefined),,> 100,,> 100,,> 100,,> 100,,> 100,,> 100,,> 100,,> 100,,> 100,,> 100
CCSc1nc(NC(C)c2ccccc2)c2cnn(CO)c2n1 (centres undefined),18.2,97.1,> 100,> 100,3.18,25.9,> 100,> 100,> 100,> 100,> 100,> 100,0.135,56.1,38.5,> 100,42.1,> 100,79.4,> 100
NC(=O)c1cc(I)ccc1NC(=O)/C=C/c1ccccc1Cl,7.22,36.4,4.9,33.5,0.366,13,0.628,30.1,0.869,> 47.2,0.362,14.5,0.405,3.78,0.572,> 35.4,0.442,4.9,0.26,0.952
COc1ccc(NC(=S)C#N)cc1,,> 100,,> 100,,> 100,,> 100,,> 100,,> 100,,> 100,,> 100,,> 100,,> 100
CON=C1C[C@]2(C[C@@H]3C[C@@H](C/C=C(\C)C[C@@H](C)/C=C/C=C4\CO[C@@H]5[C@H](O)C(C)=C[C@@H](C(=O)O3)[C@]45O)O2)O[C@H](/C(C)=C/C(C)C)[C@H]1C,1.99,11.8,15.5,29,15.4,29.1,15.4,32.5,15.7,35.3,11.1,25.3,7.52,21.6,2.63,11.2,8.1,21.9,3.91,40.9
O=C1CC(C(=O)O)Cc2c(Br)ccc(O)c21 (centres undefined),,> 100,,> 100,,> 100,,> 100,,> 100,,> 100,,> 100,,> 100,,> 100,,> 100
O=C(CN1CCN(CCN2C(=O)c3cccc4cccc(c34)C2=O)CC1)Nc1ccc2ncsc2c1,5.24,> 100,5.69,23.4,3.7,16,6.49,23.6,4.5,21.7,3.61,16.5,4.91,> 100,6.31,34.6,6.16,25.4,1.38,41.2
O=C(NCCCl)NCCN1c2nc3ccccc3cc2Sc2cc3ccccc3nc21,0.722,7.47,2.8,9.87,0.168,1.25,2.21,8.53,5.58,> 46.8,1.11,8.89,14.7,> 55.3,0.719,20.1,2.67,16.1,,> 23.3
COc1cc(-c2cc(-c3cccs3)c(C#N)c(N3CCOCC3)n2)cc(OC)c1OC,4.73,> 100,> 58.7,> 100,5.71,> 100,8.46,> 100,> 76.1,> 100,3.16,> 100,> 21.6,> 100,5.29,> 100,6.02,> 100,1.93,8.11
